Reference: ChEMBL document CHEMBL5649169 (ChemMedChem, 2018)

What was measured:
[1] = biological target: Ephrin type-A receptor 4 (Homo sapiens, UniProt P54764); assay: Inhibition of Nano Luc-fused full length C-terminal EPHA4 (unknown origin) expressed in HEK293T cells using NanoGlo as substrate incubated for 2 hrs in presence of tracer by NanoBRET assay; format: cell-based
[2] = biological target: Multifunctional protein CAD (Homo sapiens) (UniProt P27708); further: assay method not described here
[3] = biological target: Nucleoprotein TPR (Homo sapiens) (UniProt P12270); further: assay method not described here
[4] = biological target: Prelamin-A/C (Homo sapiens) (UniProt P02545); further: assay method not described here
[5] = biological target: Heterogeneous nuclear ribonucleoprotein A/B (Homo sapiens) (UniProt Q99729); further: assay method not described here
[6] = biological target: THO complex subunit 4 (Homo sapiens) (UniProt Q86V81); further: assay method not described here
[7] = biological target: T-complex protein 1 subunit alpha (Homo sapiens) (UniProt P17987); further: assay method not described here
[8] = biological target: Cyclin-T1 (Homo sapiens) (UniProt O60563); further: assay method not described here
[9] = biological target: Replication factor C subunit 3 (Homo sapiens) (UniProt P40938); further: assay method not described here
[10] = biological target: Cyclin-dependent kinase 3 (Homo sapiens) (UniProt Q00526); further: assay method not described here
[11] = biological target: Importin-8 (Homo sapiens) (UniProt O15397); further: assay method not described here
[12] = biological target: RuvB-like 2 (Homo sapiens) (UniProt Q9Y230); further: assay method not described here
[13] = biological target: SWI/SNF complex subunit SMARCC2 (Homo sapiens) (UniProt Q8TAQ2); further: assay method not described here
[14] = biological target: Zinc finger CCCH-type antiviral protein 1 (Homo sapiens) (UniProt Q7Z2W4); further: assay method not described here
[15] = biological target: Glutathione S-transferase P (Homo sapiens) (UniProt P09211); further: assay method not described here
[16] = biological target: RNA cytosine C(5)-methyltransferase NSUN2 (Homo sapiens) (UniProt Q08J23); further: assay method not described here
[17] = biological target: Calcium/calmodulin-dependent protein kinase type II subunit beta (Homo sapiens) (UniProt Q13554); further: assay method not described here
[18] = biological target: Serine/threonine-protein kinase TAO2 (Homo sapiens) (UniProt Q9UL54); further: assay method not described here
[19] = biological target: BMP-2-inducible protein kinase (Homo sapiens) (UniProt Q9NSY1); further: assay method not described here
[20] = biological target: 26S proteasome non-ATPase regulatory subunit 12 (Homo sapiens) (UniProt O00232); further: assay method not described here
[21] = biological target: Heme oxygenase 2 (Homo sapiens) (UniProt P30519); further: assay method not described here
[22] = biological target: Microtubule-actin cross-linking factor 1, isoforms 1/2/3/4/5 (Homo sapiens) (UniProt Q9UPN3); further: assay method not described here
[23] = biological target: Protein-tyrosine kinase 2-beta (Homo sapiens) (UniProt Q14289); further: assay method not described here
[24] = biological target: E3 ubiquitin-protein ligase synoviolin (Homo sapiens) (UniProt Q86TM6); further: assay method not described here
[25] = biological target: Antigen peptide transporter 2 (Homo sapiens) (UniProt Q03519); further: assay method not described here
[26] = biological target: Eukaryotic translation initiation factor 3 subunit G (Homo sapiens) (UniProt O75821); further: assay method not described here
[27] = biological target: Coatomer subunit gamma-2 (Homo sapiens) (UniProt Q9UBF2); further: assay method not described here
[28] = biological target: Dihydrolipoyllysine-residue acetyltransferase component of pyruvate dehydrogenase complex, mitochondrial (Homo sapiens) (UniProt P10515); further: assay method not described here
[29] = biological target: Mitogen-activated protein kinase kinase kinase 3 (Homo sapiens) (UniProt Q99759); further: assay method not described here
[30] = biological target: Serine/threonine-protein kinase Nek3 (Homo sapiens) (UniProt P51956); further: assay method not described here
[31] = biological target: Cytochrome c1, heme protein, mitochondrial (Homo sapiens) (UniProt P08574); further: assay method not described here
[32] = biological target: Hematopoietic lineage cell-specific protein (Homo sapiens) (UniProt P14317); further: assay method not described here
[33] = biological target: Cyclin-dependent kinase 5 (Homo sapiens) (UniProt Q00535); further: assay method not described here
[34] = organism: Homo sapiens; further: assay method not described here
[35] = biological target: Telomere length regulation protein TEL2 homolog (Homo sapiens) (UniProt Q9Y4R8); further: assay method not described here
[36] = biological target: Threonine--tRNA ligase 1, cytoplasmic (Homo sapiens) (UniProt P26639); further: assay method not described here
[37] = biological target: Mitogen-activated protein kinase kinase kinase kinase 5 (Homo sapiens) (UniProt Q9Y4K4); further: assay method not described here
[38] = biological target: Membrane-bound acylglycerophosphatidylinositol O-acyltransferase MBOAT7 (Homo sapiens) (UniProt Q96N66); further: assay method not described here
[39] = biological target: Serine/threonine-protein kinase PLK1 (Homo sapiens) (UniProt P53350); further: assay method not described here
[40] = biological target: Microtubule-associated protein RP/EB family member 2 (Homo sapiens) (UniProt Q15555); further: assay method not described here
[41] = biological target: Heat shock protein HSP 90-beta (Homo sapiens) (UniProt P08238); further: assay method not described here
[42] = biological target: Heat shock protein beta-1 (Homo sapiens) (UniProt P04792); further: assay method not described here
[43] = biological target: Large ribosomal subunit protein bL12m (Homo sapiens) (UniProt P52815); further: assay method not described here
[44] = biological target: Activated CDC42 kinase 1 (Homo sapiens) (UniProt Q07912); further: assay method not described here
[45] = biological target: Nuclear transport factor 2 (Homo sapiens) (UniProt P61970); further: assay method not described here

Chain of Hematopoietic lineage cell-specific protein (Homo sapiens) (P14317 whole entry): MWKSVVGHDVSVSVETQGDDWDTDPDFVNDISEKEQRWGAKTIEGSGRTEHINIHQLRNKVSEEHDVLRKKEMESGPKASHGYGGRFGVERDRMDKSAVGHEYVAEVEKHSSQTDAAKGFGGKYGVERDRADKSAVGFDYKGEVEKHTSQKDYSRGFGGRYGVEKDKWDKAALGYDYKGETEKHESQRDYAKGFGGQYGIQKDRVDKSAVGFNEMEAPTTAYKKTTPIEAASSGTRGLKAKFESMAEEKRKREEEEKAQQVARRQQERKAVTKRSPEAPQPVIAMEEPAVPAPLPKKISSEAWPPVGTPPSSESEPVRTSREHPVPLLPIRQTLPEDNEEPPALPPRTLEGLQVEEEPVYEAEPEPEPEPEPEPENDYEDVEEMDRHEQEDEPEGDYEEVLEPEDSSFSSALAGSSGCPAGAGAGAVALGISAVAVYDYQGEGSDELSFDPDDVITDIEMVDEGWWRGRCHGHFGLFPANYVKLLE
Chain of Cytochrome c1, heme protein, mitochondrial (Homo sapiens) (P08574 whole entry): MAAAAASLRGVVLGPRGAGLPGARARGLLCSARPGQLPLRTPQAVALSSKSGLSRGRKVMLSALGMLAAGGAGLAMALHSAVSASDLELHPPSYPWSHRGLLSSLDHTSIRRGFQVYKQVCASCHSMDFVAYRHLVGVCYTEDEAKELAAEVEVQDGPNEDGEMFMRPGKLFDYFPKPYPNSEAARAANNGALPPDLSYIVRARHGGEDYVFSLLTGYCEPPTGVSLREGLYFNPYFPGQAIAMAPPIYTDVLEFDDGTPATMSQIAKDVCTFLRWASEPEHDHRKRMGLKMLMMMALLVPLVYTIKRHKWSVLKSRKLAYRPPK
Chain of Zinc finger CCCH-type antiviral protein 1 (Homo sapiens) (Q7Z2W4 whole entry): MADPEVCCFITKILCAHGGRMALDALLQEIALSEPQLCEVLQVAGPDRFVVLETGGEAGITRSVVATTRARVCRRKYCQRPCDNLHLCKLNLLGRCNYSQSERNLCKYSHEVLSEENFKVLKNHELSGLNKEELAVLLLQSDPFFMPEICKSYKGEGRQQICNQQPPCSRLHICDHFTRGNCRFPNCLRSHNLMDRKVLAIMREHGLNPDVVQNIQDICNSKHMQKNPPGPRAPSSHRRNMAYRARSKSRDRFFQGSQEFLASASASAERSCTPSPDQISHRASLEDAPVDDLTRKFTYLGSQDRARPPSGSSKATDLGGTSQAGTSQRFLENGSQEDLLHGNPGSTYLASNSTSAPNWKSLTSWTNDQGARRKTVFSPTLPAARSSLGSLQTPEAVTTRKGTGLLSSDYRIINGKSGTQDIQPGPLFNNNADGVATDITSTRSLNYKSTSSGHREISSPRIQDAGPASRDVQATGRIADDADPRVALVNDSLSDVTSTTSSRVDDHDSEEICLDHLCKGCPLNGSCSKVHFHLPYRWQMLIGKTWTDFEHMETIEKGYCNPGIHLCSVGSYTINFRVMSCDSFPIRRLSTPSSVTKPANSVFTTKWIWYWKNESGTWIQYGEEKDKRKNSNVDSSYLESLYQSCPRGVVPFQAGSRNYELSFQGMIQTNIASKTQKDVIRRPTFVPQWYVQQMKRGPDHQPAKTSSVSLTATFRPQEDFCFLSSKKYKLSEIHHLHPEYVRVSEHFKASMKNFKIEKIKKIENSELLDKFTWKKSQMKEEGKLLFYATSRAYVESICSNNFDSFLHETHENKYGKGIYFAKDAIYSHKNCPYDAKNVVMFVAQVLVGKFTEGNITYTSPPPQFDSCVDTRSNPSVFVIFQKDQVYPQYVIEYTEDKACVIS
Chain of Replication factor C subunit 3 (Homo sapiens) (P40938 whole entry): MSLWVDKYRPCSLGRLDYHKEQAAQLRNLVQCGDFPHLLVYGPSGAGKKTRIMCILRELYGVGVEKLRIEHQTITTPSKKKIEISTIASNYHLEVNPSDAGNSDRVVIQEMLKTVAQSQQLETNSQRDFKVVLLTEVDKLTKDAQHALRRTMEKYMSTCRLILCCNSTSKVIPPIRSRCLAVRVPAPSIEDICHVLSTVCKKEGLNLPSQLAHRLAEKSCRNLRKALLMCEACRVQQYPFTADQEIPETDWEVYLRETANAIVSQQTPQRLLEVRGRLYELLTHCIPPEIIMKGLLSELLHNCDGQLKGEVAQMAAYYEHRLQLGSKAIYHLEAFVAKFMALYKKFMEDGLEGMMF
Chain of Dihydrolipoyllysine-residue acetyltransferase component of pyruvate dehydrogenase complex, mitochondrial (Homo sapiens) (P10515 whole entry, one chain of several): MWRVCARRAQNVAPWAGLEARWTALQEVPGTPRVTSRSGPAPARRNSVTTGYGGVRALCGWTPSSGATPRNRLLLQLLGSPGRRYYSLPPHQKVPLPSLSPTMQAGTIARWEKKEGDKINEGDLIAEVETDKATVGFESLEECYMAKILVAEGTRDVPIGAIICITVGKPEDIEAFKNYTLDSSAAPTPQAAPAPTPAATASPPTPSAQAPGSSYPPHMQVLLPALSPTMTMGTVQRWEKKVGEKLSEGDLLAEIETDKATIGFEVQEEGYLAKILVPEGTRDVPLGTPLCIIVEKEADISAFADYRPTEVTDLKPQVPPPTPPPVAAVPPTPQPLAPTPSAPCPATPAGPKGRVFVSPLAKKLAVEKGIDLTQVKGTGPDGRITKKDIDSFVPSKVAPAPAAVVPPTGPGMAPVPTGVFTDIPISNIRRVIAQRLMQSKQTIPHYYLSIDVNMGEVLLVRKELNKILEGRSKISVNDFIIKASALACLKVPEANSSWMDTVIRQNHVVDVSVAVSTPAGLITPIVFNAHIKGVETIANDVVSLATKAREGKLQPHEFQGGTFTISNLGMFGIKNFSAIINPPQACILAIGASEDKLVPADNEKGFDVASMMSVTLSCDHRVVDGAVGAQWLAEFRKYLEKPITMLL
Chain of 26S proteasome non-ATPase regulatory subunit 12 (Homo sapiens) (O00232 whole entry): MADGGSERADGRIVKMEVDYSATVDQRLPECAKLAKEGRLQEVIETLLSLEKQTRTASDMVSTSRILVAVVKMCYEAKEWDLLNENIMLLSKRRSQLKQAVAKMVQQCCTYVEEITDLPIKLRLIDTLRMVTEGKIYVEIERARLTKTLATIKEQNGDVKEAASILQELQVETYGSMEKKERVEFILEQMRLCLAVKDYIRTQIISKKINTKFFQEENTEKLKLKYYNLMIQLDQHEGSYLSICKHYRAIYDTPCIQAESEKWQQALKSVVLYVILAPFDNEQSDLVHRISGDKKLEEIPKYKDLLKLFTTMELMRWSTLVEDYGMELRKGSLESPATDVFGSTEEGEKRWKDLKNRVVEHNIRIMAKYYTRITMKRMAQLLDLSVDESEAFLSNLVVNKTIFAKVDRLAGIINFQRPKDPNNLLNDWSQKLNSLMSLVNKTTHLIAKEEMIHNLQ
Chain of T-complex protein 1 subunit alpha (Homo sapiens) (P17987 whole entry, one chain of several): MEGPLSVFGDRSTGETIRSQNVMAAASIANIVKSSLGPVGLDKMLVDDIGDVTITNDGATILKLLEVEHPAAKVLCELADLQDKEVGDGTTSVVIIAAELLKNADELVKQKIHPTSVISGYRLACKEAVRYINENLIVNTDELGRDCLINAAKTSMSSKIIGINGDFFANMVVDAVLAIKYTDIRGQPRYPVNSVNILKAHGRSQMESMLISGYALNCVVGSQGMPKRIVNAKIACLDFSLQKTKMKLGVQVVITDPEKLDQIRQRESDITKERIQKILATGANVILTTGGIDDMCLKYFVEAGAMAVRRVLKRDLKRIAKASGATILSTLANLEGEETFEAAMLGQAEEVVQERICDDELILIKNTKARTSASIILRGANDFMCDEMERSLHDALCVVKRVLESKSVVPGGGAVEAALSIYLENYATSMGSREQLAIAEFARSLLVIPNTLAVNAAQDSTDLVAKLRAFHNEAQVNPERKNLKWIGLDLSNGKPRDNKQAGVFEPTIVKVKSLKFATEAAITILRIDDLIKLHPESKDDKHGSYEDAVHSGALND
Chain of Telomere length regulation protein TEL2 homolog (Homo sapiens) (Q9Y4R8 whole entry): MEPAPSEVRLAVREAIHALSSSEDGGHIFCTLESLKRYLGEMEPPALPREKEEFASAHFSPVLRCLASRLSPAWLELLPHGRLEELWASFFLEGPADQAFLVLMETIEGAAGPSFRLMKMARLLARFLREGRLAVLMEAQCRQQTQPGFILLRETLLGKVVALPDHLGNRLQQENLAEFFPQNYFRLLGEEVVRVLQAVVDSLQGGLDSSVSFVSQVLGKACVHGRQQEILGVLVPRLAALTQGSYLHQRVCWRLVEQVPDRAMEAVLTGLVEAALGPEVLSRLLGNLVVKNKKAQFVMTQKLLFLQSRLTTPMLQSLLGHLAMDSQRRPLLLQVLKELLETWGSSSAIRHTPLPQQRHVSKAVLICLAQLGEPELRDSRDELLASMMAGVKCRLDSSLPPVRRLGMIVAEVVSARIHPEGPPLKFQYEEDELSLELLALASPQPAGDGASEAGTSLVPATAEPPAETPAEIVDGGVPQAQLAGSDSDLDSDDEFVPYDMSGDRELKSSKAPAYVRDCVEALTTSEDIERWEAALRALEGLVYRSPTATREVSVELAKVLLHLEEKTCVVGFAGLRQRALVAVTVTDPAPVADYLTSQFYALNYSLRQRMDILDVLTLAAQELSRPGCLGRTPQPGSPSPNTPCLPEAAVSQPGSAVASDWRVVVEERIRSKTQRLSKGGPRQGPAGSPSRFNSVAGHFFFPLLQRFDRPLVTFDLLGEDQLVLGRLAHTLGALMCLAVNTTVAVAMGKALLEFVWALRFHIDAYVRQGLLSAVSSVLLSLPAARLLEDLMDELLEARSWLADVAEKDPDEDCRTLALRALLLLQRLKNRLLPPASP
Chain of Heme oxygenase 2 (Homo sapiens) (P30519 whole entry, canonical isoform): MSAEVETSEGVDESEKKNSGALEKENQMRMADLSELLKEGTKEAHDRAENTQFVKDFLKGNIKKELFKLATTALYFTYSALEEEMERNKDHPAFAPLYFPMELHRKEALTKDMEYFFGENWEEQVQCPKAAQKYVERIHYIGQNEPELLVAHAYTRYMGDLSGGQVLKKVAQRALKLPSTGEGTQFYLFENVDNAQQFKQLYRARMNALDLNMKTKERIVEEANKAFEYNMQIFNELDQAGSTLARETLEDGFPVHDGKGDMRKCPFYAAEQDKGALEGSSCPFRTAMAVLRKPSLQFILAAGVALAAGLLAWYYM

Cc1ccc(C(=O)Nc2cccc(C(F)(F)F)c2)cc1Nc1nc(-c2cccnc2)nc2c1cnn2C
IC50 [1]: 0.0076 µM | ED50 [2]: 0.00265 µM | ED50 [3]: 10.4 µM | ED50 [4]: 5.41 µM | ED50 [5]: 0.0215 µM | ED50 [6]: 70.3 µM | ED50 [7]: 0.0234 µM | ED50 [8]: 0.0168 µM | ED50 [9]: 0.485 µM | ED50 [10]: 0.134 µM | ED50 [11]: 49.5 µM | ED50 [12]: 5000 µM | ED50 [13]: 21.8 µM | ED50 [14]: 13.3 µM | ED50 [15]: 1700 µM | ED50 [16]: 48.7 µM | ED50 [17]: 17.4 µM | ED50 [18]: 23.9 µM | ED50 [19]: 0.0018 µM | ED50 [20]: 3.2 µM | ED50 [21]: 4.08 µM | ED50 [22]: 5.13 µM | ED50 [23]: 0.433 µM | ED50 [24]: 0.162 µM | ED50 [25]: 10.3 µM | ED50 [26]: 0.00468 µM | ED50 [27]: 7.49 µM | ED50 [28]: 2.58 µM | ED50 [29]: 12.1 µM | ED50 [30]: 4.18 µM | ED50 [31]: 0.00055 µM | ED50 [32]: 0.0299 µM | ED50 [33]: 5.06 µM | ED50 [34]: 0.00517 µM | ED50 [35]: 0.665 µM | ED50 [36]: 0.00531 µM | ED50 [37]: 5.17 µM | ED50 [38]: 3.4 µM | ED50 [39]: 1.22 µM | ED50 [40]: 0.0302 µM | ED50 [41]: 0.000546 µM | ED50 [42]: 11 µM | ED50 [43]: 7.74 µM | ED50 [44]: 2.19 µM | ED50 [45]: 0.00217 µM

Cc1ccc(C(=O)Nc2cccc(C(F)(F)F)c2)cc1Nc1nc(-c2cccnc2)nc2nn(C)cc12
IC50 [1]: ~10 µM | ED50 [2]: 0.00448 µM | ED50 [3]: 7.76 µM | ED50 [4]: 2.4 µM | ED50 [5]: 1.36 µM | ED50 [6]: 4.45 µM | ED50 [7]: 0.082 µM | ED50 [8]: 0.0502 µM | ED50 [9]: 0.0505 µM | ED50 [10]: 511 µM | ED50 [11]: 25.8 µM | ED50 [12]: 0.0478 µM | ED50 [13]: 0.0058 µM | ED50 [14]: 0.0483 µM | ED50 [15]: 58.7 µM | ED50 [16]: 0.000187 µM | ED50 [17]: 0.0059 µM | ED50 [18]: 4.27 µM | ED50 [19]: 0.11 µM | ED50 [20]: 0.0504 µM | ED50 [21]: 0.02 µM | ED50 [22]: 0.0234 µM | ED50 [23]: 36.6 µM | ED50 [24]: 0.00734 µM | ED50 [25]: 0.0871 µM | ED50 [26]: 0.0104 µM | ED50 [27]: 0.051 µM | ED50 [28]: 0.0551 µM | ED50 [29]: 0.0358 µM | ED50 [30]: 10.7 µM | ED50 [31]: 0.0293 µM | ED50 [32]: 3210 µM | ED50 [33]: 17.2 µM | ED50 [34]: 22.8 µM | ED50 [35]: 0.000314 µM | ED50 [36]: 0.0576 µM | ED50 [37]: 13.4 µM | ED50 [38]: 0.202 µM | ED50 [39]: 98.4 µM | ED50 [40]: 35 µM | ED50 [41]: 0.083 µM | ED50 [42]: 0.0109 µM | ED50 [43]: 0.117 µM | ED50 [44]: 10.3 µM | ED50 [45]: 0.419 µM
